Test results reported in US9295673B2, “Combination of mTOR inhibitors and P13-kinase inhibitors, and uses thereof” (Intellikine LLC, priority 2011, dated 2016).

molecular target: PI3K γ (Homo sapiens, UniProt P48736); experiment: PI 3-Kinase (human) HTRF assay, PI3K γ; settings: not given
Sequence (P48736 whole entry): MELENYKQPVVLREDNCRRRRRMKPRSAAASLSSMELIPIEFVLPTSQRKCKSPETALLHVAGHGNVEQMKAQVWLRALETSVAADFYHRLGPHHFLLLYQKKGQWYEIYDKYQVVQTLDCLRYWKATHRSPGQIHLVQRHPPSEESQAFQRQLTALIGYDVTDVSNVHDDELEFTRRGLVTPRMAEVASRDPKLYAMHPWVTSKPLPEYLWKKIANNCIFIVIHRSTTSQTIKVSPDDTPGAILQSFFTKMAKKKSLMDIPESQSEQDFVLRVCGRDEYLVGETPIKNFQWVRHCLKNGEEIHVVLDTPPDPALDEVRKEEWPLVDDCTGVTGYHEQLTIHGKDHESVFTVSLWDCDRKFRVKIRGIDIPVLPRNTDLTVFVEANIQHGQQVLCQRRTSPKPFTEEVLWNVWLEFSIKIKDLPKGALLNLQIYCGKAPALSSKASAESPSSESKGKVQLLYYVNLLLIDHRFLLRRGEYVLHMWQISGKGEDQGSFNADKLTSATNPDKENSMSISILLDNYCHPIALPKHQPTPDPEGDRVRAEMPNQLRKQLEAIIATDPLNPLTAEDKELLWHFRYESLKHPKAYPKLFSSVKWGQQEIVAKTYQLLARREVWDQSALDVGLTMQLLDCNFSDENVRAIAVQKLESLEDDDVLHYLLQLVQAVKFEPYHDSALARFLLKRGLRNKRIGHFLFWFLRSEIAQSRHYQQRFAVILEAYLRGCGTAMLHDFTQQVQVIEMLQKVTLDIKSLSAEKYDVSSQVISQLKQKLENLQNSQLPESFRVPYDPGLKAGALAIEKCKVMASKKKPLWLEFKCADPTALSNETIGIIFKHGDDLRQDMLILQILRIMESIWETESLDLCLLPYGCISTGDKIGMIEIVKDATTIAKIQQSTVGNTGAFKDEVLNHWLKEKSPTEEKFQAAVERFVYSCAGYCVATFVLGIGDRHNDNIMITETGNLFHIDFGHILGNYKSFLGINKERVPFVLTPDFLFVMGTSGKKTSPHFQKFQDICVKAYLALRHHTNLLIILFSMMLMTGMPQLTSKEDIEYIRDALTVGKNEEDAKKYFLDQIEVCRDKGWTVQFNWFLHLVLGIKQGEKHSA

| IC50 | SMILES |
| --- | --- |
| > 10000 nM | C[C@H]1CN(c2cnc3scc(-c4ccc5oc(N)nc5c4)c3n2)CCN1 [Compound 399] |
| < 10000 nM | CCN1CCN(C(=O)c2cnc3ncc(-c4ccc5oc(N)nc5c4)cn23)CC1 [Compound 141] |

same assay, conditions: read-out: PI3K γ IC50

| SMILES | IC50 |
| --- | --- |
| Nc1ncnc2c1c(-c1cc3cc(O)ccc3[nH]1)nn2Cc1cccnc1 [Compound 38] | > 500 nM |
| Nc1ncnc2c1c(-c1cc3cc(O)ccc3[nH]1)nn2CC(=O)N1CCOCC1 [Compound 34] | > 500 nM |
| CC(=O)Nc1nc2ccc(-c3ccc4oc(N)nc4c3)cc2s1 [Compound 231] | < 100 nM |
| Nc1nc2cc(-c3cnc4ccc(N5C6CCC5COC6)nc4c3)ccc2o1 [Compound 632] | < 10000 nM |
| Nc1nc2cc(-c3ccc4ncc(N5CC(N6C7CCC6COC7)C5)nc4n3)ccc2o1 [Compound 602] | > 10000 nM |
| Nc1nc2cc(-c3ccc4ncc(C(=O)NC5CCC(O)CC5)n4c3)ccc2o1 (stereo not shown) [Compound 143] | < 100 nM |
| Nc1nc2cc(-c3ccc4ncc(NC5CCC(O)CC5)nc4c3)ccc2o1 (stereo not shown) [Compound 128] | < 100 nM |
| CC(C)n1nc(-c2cc3c(Cl)ccc(O)c3[nH]2)c2c(N)ncnc21 [Compound 39] | > 500 nM |
| Cc1ccc(NC(=O)c2cnc3ccc(-c4ccc5oc(N)nc5c4)cn23)cn1 [Compound 294] | < 100 nM |

same assay, conditions: read-out: PI3K γ IC50; Table 2

| SMILES | IC50 |
| --- | --- |
| COc1cccc2cc(-c3nn(C4CCOCC4)c4ncnc(N)c34)[nH]c12 [Compound 63] | 10 to 25 nM |

molecular target: PI3K δ (Homo sapiens, UniProt O00329); experiment: PI 3-Kinase (human) HTRF assay, PI3K δ; settings: not given
Sequence (O00329 whole entry): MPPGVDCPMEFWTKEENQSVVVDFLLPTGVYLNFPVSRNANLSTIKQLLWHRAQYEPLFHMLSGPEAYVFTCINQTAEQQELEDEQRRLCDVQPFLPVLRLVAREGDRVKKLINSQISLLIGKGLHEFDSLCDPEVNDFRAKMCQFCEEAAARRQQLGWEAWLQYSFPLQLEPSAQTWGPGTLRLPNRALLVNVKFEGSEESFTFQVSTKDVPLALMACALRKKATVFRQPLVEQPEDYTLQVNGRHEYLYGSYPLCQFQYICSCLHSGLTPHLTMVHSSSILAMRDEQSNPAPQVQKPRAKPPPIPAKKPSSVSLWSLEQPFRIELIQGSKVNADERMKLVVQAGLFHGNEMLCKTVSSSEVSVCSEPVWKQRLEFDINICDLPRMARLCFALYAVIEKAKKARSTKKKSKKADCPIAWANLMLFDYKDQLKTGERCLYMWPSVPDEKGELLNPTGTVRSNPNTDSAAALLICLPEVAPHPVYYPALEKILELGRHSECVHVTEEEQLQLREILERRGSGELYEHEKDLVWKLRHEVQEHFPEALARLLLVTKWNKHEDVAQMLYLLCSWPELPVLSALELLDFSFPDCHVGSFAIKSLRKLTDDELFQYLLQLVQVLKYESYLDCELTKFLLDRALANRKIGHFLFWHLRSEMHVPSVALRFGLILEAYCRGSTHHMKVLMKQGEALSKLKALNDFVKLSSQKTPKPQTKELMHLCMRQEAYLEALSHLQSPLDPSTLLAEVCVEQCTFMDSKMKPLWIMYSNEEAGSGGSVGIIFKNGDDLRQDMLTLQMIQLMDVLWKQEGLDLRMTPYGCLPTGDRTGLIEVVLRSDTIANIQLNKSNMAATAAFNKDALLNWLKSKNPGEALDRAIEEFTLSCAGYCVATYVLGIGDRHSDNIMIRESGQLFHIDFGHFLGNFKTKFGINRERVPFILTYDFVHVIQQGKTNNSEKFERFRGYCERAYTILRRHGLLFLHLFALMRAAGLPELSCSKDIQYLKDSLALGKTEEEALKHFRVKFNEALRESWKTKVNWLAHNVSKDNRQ
Sequence (P27986 whole entry partner): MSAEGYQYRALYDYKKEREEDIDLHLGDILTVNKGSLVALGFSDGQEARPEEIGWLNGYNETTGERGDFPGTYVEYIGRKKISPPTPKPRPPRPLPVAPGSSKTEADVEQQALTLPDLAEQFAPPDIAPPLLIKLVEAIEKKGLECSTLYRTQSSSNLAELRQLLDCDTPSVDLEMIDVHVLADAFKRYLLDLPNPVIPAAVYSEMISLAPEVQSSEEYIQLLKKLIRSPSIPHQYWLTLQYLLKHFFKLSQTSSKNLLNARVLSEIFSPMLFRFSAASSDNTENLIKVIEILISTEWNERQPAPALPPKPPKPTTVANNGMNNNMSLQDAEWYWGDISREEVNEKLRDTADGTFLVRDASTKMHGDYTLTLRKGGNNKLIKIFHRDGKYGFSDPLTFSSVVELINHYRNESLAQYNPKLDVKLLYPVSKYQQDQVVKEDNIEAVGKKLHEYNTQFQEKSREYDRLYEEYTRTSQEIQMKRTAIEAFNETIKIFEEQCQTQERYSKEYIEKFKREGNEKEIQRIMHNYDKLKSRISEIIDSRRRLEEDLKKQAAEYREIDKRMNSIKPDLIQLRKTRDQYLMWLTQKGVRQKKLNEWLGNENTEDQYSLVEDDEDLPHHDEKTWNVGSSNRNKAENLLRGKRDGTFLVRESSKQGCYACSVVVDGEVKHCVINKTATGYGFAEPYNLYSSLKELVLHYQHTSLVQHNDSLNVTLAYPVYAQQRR

| IC50 | SMILES |
| --- | --- |
| > 10000 nM | C[C@H]1CN(c2cnc3scc(-c4ccc5oc(N)nc5c4)c3n2)CCN1 [Compound 399] |
| > 10000 nM | CCN1CCN(C(=O)c2cnc3ncc(-c4ccc5oc(N)nc5c4)cn23)CC1 [Compound 141] |

same assay, conditions: read-out: PI3K δ IC50

| SMILES | IC50 |
| --- | --- |
| COc1cccc2cc(-c3nn(C4CCOCC4)c4ncnc(N)c34)[nH]c12 [Compound 63] | 10 to 25 nM |
| Nc1ncnc2c1c(-c1cc3cc(O)ccc3[nH]1)nn2CC(=O)N1CCOCC1 [Compound 34] | > 500 nM |
| CC(=O)Nc1nc2ccc(-c3ccc4oc(N)nc4c3)cc2s1 [Compound 231] | < 100 nM |
| Nc1nc2cc(-c3cnc4ccc(N5C6CCC5COC6)nc4c3)ccc2o1 [Compound 632] | > 10000 nM |
| Nc1nc2cc(-c3ccc4ncc(N5CC(N6C7CCC6COC7)C5)nc4n3)ccc2o1 [Compound 602] | > 10000 nM |
| Nc1nc2cc(-c3ccc4ncc(NC5CCC(O)CC5)nc4c3)ccc2o1 (stereo not shown) [Compound 128] | < 100 nM |
| Cc1ccc(NC(=O)c2cnc3ccc(-c4ccc5oc(N)nc5c4)cn23)cn1 [Compound 294] | < 10000 nM |

same assay, conditions: read-out: PI3K δ IC50; Table 2

| SMILES | IC50 |
| --- | --- |
| Nc1ncnc2c1c(-c1cc3cc(O)ccc3[nH]1)nn2Cc1cccnc1 [Compound 38] | > 500 nM |
| CC(C)n1nc(-c2cc3c(Cl)ccc(O)c3[nH]2)c2c(N)ncnc21 [Compound 39] | > 500 nM |

molecular target: PI3K β (Homo sapiens, UniProt P42338); experiment: PI 3-Kinase (human) HTRF assay, PI3K β; settings: not given
Sequence (P42338 whole entry): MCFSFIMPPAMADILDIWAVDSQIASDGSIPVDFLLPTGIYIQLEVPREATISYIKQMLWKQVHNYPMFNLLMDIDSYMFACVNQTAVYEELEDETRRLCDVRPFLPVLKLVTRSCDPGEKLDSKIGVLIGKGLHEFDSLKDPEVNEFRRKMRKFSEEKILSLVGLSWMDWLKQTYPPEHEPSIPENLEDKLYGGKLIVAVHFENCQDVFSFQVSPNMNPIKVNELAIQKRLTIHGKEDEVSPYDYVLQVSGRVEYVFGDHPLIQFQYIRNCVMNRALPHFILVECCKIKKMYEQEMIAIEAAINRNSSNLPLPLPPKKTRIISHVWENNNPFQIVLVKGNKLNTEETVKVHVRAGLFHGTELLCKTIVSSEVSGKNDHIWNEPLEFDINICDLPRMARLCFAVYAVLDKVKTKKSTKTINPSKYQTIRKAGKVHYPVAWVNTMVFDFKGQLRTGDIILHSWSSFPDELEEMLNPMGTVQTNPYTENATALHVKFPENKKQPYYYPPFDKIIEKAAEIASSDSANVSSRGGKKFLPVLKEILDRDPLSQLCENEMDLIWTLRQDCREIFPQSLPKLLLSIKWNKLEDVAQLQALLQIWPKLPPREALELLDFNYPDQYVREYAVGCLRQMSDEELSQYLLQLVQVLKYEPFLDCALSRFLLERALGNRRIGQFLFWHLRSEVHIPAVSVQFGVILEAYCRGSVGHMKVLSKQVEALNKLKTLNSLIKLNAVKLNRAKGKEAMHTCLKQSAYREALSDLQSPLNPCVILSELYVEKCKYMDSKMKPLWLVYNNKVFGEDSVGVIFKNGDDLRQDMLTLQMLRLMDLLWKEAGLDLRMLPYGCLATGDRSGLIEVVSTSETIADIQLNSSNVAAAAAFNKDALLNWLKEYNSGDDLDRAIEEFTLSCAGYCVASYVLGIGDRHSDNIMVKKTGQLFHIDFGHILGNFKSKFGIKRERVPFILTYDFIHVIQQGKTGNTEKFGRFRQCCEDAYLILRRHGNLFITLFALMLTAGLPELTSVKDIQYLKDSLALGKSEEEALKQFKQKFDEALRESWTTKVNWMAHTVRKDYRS
Sequence (P27986 whole entry partner): as the sequence (P27986 whole entry partner) above

| IC50 | SMILES |
| --- | --- |
| > 10000 nM | C[C@H]1CN(c2cnc3scc(-c4ccc5oc(N)nc5c4)c3n2)CCN1 [Compound 399] |
| > 10000 nM | CCN1CCN(C(=O)c2cnc3ncc(-c4ccc5oc(N)nc5c4)cn23)CC1 [Compound 141] |

same assay, conditions: read-out: PI3K β IC50

| SMILES | IC50 |
| --- | --- |
| CC(=O)Nc1nc2ccc(-c3ccc4oc(N)nc4c3)cc2s1 [Compound 231] | < 1000 nM |
| Nc1nc2cc(-c3ccc4ncc(C(=O)NC5CCC(O)CC5)n4c3)ccc2o1 (stereo not shown) [Compound 143] | < 10000 nM |
| Nc1nc2cc(-c3ccc4ncc(NC5CCC(O)CC5)nc4c3)ccc2o1 (stereo not shown) [Compound 128] | < 10000 nM |
| Cc1ccc(NC(=O)c2cnc3ccc(-c4ccc5oc(N)nc5c4)cn23)cn1 [Compound 294] | > 10000 nM |

same assay, conditions: read-out: PI3K β IC50; Table 2

| SMILES | IC50 |
| --- | --- |
| COc1cccc2cc(-c3nn(C4CCOCC4)c4ncnc(N)c34)[nH]c12 [Compound 63] | > 500 nM |

same assay, conditions: read-out: PI3K β IC50; Table 4

| SMILES | IC50 |
| --- | --- |
| Nc1nc2cc(-c3cnc4ccc(N5C6CCC5COC6)nc4c3)ccc2o1 [Compound 632] | > 10000 nM |
| Nc1nc2cc(-c3ccc4ncc(N5CC(N6C7CCC6COC7)C5)nc4n3)ccc2o1 [Compound 602] | > 10000 nM |

molecular target: PI3K α (Homo sapiens, UniProt P42336); experiment: PI 3-Kinase (human) HTRF assay, PI3K α; settings: not given
Sequence (P42336 whole entry): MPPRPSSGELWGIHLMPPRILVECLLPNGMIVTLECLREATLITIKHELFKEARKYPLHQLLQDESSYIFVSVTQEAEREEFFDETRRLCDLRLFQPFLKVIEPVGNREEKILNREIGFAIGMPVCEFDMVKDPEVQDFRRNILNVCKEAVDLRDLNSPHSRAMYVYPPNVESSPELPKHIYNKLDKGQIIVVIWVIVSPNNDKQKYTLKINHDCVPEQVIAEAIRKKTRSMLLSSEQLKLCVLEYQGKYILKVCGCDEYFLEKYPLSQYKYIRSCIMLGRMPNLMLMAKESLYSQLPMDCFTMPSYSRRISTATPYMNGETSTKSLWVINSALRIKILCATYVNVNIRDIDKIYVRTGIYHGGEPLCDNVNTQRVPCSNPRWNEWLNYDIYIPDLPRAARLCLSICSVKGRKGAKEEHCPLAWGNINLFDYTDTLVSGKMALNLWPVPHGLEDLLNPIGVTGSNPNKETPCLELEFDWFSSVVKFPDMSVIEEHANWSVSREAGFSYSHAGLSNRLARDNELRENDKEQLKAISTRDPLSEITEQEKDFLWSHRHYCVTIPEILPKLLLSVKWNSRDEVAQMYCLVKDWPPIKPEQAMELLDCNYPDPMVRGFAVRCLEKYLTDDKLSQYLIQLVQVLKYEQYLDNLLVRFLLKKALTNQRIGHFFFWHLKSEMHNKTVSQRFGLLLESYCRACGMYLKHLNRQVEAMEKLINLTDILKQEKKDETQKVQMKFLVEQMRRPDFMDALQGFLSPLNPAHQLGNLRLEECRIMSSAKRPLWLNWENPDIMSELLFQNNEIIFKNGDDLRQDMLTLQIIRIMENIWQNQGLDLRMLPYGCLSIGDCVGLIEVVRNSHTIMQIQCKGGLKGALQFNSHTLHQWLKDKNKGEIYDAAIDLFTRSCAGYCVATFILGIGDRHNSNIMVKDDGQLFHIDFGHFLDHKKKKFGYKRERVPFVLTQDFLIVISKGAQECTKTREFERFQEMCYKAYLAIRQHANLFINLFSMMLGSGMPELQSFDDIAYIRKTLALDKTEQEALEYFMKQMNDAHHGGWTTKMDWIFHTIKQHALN
Sequence (P27986 whole entry partner): as the sequence (P27986 whole entry partner) above

| IC50 | SMILES |
| --- | --- |
| > 10000 nM | C[C@H]1CN(c2cnc3scc(-c4ccc5oc(N)nc5c4)c3n2)CCN1 [Compound 399] |
| < 1000 nM | CCN1CCN(C(=O)c2cnc3ncc(-c4ccc5oc(N)nc5c4)cn23)CC1 [Compound 141] |

same assay, conditions: read-out: PI3K α IC50

| SMILES | IC50 |
| --- | --- |
| COc1cccc2cc(-c3nn(C4CCOCC4)c4ncnc(N)c34)[nH]c12 [Compound 63] | 100 to 500 nM |
| Nc1ncnc2c1c(-c1cc3cc(O)ccc3[nH]1)nn2CC(=O)N1CCOCC1 [Compound 34] | > 500 nM |
| CC(=O)Nc1nc2ccc(-c3ccc4oc(N)nc4c3)cc2s1 [Compound 231] | < 100 nM |
| Nc1nc2cc(-c3cnc4ccc(N5C6CCC5COC6)nc4c3)ccc2o1 [Compound 632] | < 10000 nM |
| Nc1nc2cc(-c3ccc4ncc(N5CC(N6C7CCC6COC7)C5)nc4n3)ccc2o1 [Compound 602] | < 10000 nM |
| Nc1nc2cc(-c3ccc4ncc(NC5CCC(O)CC5)nc4c3)ccc2o1 (stereo not shown) [Compound 128] | < 100 nM |
| Cc1ccc(NC(=O)c2cnc3ccc(-c4ccc5oc(N)nc5c4)cn23)cn1 [Compound 294] | < 100 nM |

same assay, conditions: read-out: PI3K α IC50; Table 2

| SMILES | IC50 |
| --- | --- |
| Nc1ncnc2c1c(-c1cc3cc(O)ccc3[nH]1)nn2Cc1cccnc1 [Compound 38] | > 500 nM |
| CC(C)n1nc(-c2cc3c(Cl)ccc(O)c3[nH]2)c2c(N)ncnc21 [Compound 39] | > 500 nM |

molecular target: T1, mTOR (Homo sapiens, UniProt P42345); experiment: mTOR kinase inhibition assay (radiometric or LanthaScreen TR-FRET); assay type: biochemical; settings: Table 2; read-out: mTORC IC50
T1 construct: purchased Invitrogen

| SMILES | IC50 |
| --- | --- |
| Nc1ncnc2c1c(-c1cc3cc(O)ccc3[nH]1)nn2Cc1cccnc1 [Compound 38] | < 500 nM |
| COc1cccc2cc(-c3nn(C4CCOCC4)c4ncnc(N)c34)[nH]c12 [Compound 63] | < 5 nM |
| Nc1ncnc2c1c(-c1cc3cc(O)ccc3[nH]1)nn2CC(=O)N1CCOCC1 [Compound 34] | > 500 nM |
| CC(C)n1nc(-c2cc3c(Cl)ccc(O)c3[nH]2)c2c(N)ncnc21 [Compound 39] | < 10 nM |

same assay, conditions: read-out: mTORC IC50

| SMILES | IC50 |
| --- | --- |
| CC(=O)Nc1nc2ccc(-c3ccc4oc(N)nc4c3)cc2s1 [Compound 231] | < 10000 nM |
| Nc1nc2cc(-c3ccc4ncc(C(=O)NC5CCC(O)CC5)n4c3)ccc2o1 (stereo not shown) [Compound 143] | > 10000 nM |
